These results are taken from publication PMC7004151, “Synthesis and Structure‐Activity Relationships of N‐(4‐Benzamidino)‐Oxazolidinones: Potent and Selective Inhibitors of Kallikrein‐Related Peptidase 6” (Chemmedchem, 2019).

Series [1] in a line: Microsomal intrinsic clearance, mouse liver microsomes. The format is in vitro ADME. How it is done:
Immediately, at time zero, then at 3, 6, 9, 15 and 30 min an aliquot (50 μL) of the incubation mixture was removed and mixed with acetonitrile (100 μL) to stop the reaction. Internal standard was added to all samples, the samples centrifuged to sediment precipitated protein and the plates then sealed prior to UPLC‐MS/MS analysis using a Quattro Premier XE (Waters Corporation, USA). XLfit (IDBS, UK) was used to calculate the exponential decay and consequently the rate constant (k) from the ratio of peak area of test compound to internal standard at each timepoint. The rate of intrinsic clearance (CLint) of each test compound was then calculated using the following calculation: CLint (mL/min/g liver)=k×V×Microsomal protein yield. Where V (mL/mg protein) is the incubation volume/mg protein added and microsomal protein yield is taken as 52.5 mg protein/g liver. Verapamil (0.5 μM) was used as a positive control to confirm acceptable assay performance.
A general note: Liver microsomes are vesicles of endoplasmic reticulum, rich in cytochrome P450 enzymes.

Series [2] is described as follows: Plasma stability assay. The format is in vitro ADME, mouse. The protocol:
Plasma stability assay: Test compound (10 μM) was incubated in pre‐warmed plasma at 37 °C (that is buffered to pH 7.4 in ratio of 70 : 30 plasma to buffer). Immediately, at time zero, then at 30, 60, 120, and 180 min, a 50 μL aliquot of the incubation mixture was removed and mixed with 200 μL acetonitrile containing Donepezil as the internal standard (50 ng/mL) to stop the reaction. The samples were centrifuged to sediment the precipitated protein and the plates then sealed prior to UPLC‐MS/MS analysis using a Quattro Premier XE (Waters Corporation, USA). XLfit (IDBS, UK) was used to calculate the exponential decay and consequently the rate constant (k) from the ratio of peak area of test compound to internal standard at each time point. The half‐life was calculated for each test compound from the rate by using the following calculation: t1/2=0.693/k

The test system of series [3] is HCT116 cells. As to the kind of experiment: HCT116 cell growth and viability. The format is cell-based. To be noted: at the tested concentrations (data not shown). The source says:
We have previously shown that knockdown of KLK6 reduces migration and invasion of HCT116 cells in vitro.13 In order to test whether this effect could be recapitulated with small molecule KLK6 inhibitors, we measured the ability of 32 to reduce invasion of HCT116 cells. […] HCT116 cell growth and viability was not altered upon treatment with compounds 9 and 32 at the tested concentrations (data not shown).

Series [4] addresses T1, Human trypsin (Homo sapiens, UniProt P07477).
T1 construct: purchased Polymun Scientific
As to the kind of experiment: Trypsin enzyme inhibition assay. The format is biochemical. The note with it: read-out: Trypsin pIC50 (converted). How it is done: Human thrombin was purchased from Biopur. Human trypsin was purchased from Polymun Scientific. Human Factor Xa was purchased from Enzo Life Sciences. […] Fluorescence intensity was then read at ex/em 485/535 following incubation for 1 h at room temperature (thrombin and factor Xa) or 20 min (trypsin).

Series [5] deals with T2, CYP2D6 (Homo sapiens, UniProt P10635).
T2 construct: purchased Cypex; host or cells: bacterial membranes (bactosomes)
T2 sequence (P10635 whole entry): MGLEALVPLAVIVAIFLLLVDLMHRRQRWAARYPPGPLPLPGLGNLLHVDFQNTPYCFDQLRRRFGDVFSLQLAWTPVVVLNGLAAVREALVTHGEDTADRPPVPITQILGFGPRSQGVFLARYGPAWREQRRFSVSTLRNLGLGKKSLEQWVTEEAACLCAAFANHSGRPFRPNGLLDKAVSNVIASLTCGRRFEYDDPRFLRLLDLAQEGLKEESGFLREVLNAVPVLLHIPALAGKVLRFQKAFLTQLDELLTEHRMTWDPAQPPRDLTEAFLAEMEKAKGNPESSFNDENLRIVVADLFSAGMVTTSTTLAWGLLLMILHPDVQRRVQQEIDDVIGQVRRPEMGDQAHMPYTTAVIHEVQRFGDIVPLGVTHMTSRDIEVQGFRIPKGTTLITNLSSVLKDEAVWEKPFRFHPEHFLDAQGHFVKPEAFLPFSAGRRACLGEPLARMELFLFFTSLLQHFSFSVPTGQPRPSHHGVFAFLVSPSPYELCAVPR
As to the kind of experiment: Fluorescence-based CYP inhibition, CYP bactosomes. The format is in vitro ADME. To be noted: read-out: CYP Inhibition IC50 2D6. The protocol:
Fluorescence-based CYP Inhibition using recombinantly expressed CYP bactosomes: Fluorescence CYP inhibition studies were conducted at 37 °C in 96-well, flat-bottom, clear polystyrene plates. Incubation mixtures containing […] bactosomes (1000 pmol/mL, 10 mg/mL Cypex TM), fluorigenic substrate (Cypex TM) and 50 mM potassium phosphate buffer (pH 7.4) were prepared at the following final concentrations: CYP1A2, 5 pmol/mL+0.5 μM Ethoxyresorufin (ER); […] Bactosome control protein was included in reactions to give a final concentration of 0.025 mg/mL. Reaction times were verified to be within the limits of kinetics linearity. For each isoform, 220 μL of incubation mix was added to each well of a 96-well, flat-bottom, clear polystyrene plate. […] Reactions were initiated by the addition of 25 μL regenerating cofactor solution (23 mM Glucose-6-Phosphate, 2.2 mM NADP, 6 Units per ml Glucose-6-Phosphate Dehydrogenase (from Baker's yeast S. cerevisiae) in 2 % w/v NaHCO3, Sigma) and subsequent production of fluorescence metabolite measured at 1 min intervals over a 10 min period using a BMG Optima fluorescence detector (ER: Exc 530 nm, Em 590 nm, MFC: Exc 410 nm, Em 530 nm, CEC: Exc 410 nm, Em 530 nm, MAMC: Exc 405 nm, Em 460 nm, DEF: Exc 405 nm, Em 560 nm, 7BQ: Exc 485 nm, Em 530 nm). Fluorescence responses were adjusted to a percentage of uninhibited control before plotting against compound concentration and deriving the IC50 by fitting to a 4 parameter logistic regression model.

A short description of series [6]: Thermodynamic solubility. The format is physicochemical. To be noted: thermodynamic from solid, Milli-Q water, 37 °C. The protocol: Thermodynamic solubility: Test compound (3 mg) is accurately weighed into a Micronics tube. Extra tubes for each control compound, Warfarin (high solubility control) and Cinnarizine (low solubility control) were also accurately weighed. To each tube is added 1 mL of Milli‐Q water. All samples are vortexed for 20 s and placed in a bench top incubator shaker set at 1300 rpm at 37 °C for 5 h. After the incubation, samples are centrifuged at 10,000 rpm for 3 min. 100 μL aliquots of the supernatant in duplicate were placed in a 96‐well plate. All samples, calibration standards and QC samples are analyzed using a validated HPLC method on the Dionex Ultramate 3000 HPLC system. The concentration determined from the supernatant was then reported as the solubility of each compound in μg/mL.

In brackets after ≈: the same amount, converted by molar mass.

In the case of `CC[C@H](NC(=O)[C@H]1CN(c2ccc(C(=N)N)cc2)C(=O)O1)c1cccc2ccccc12` [Compound 32, (5R)‐3‐(4‐carbamimidoylphenyl)‐N‐((S)‐1‐(naphthalen‐1‐yl)propyl)‐2‐oxooxazolidine‐5‐carboxamide], the “Mouse CLint” value in series [1] worked out at 2.4 mL/min/g. For the same molecule, the “stability in mouse plasma” value in series [2] (over 3 h) was “no instability”. The half-life at 10 μM in series [2] (pH 7.4, mouse plasma, 37 °C, read-out: Mouse Plasma Stability (t1/2)) is more than 3 h. In addition, the “HCT116 cell growth and viability” value in series [3] is “not altered”. Also, the IC50 in series [4] was 63.1 nM; in series [5] it was more than 10000 nM. In addition, the solubility (thermodynamic) at 5 h in series [6] was 2300 µM (≈ 958 µg/mL).

Broadly, the thermodynamic solubility is solubility found after equilibrating the solid with the medium.
